Source: patent US7115253B1, “Process for stabilizing antioxidant compounds, and aqueous compositions” (Industria E Comercio De Cosmeticos Natura Ltda., priority 1999, dated 2006)

Assay: degradation kinetics of 10% LAA solution under ultraviolet radiation
Assay type: physicochemical
Description: Comparative tests carried out by the inventors confirm the important paper of the reducing agent in the stabilization of antioxidants as per information obtained by Wrinkler B. S. in his work cited herein. A first test was carried out in order to determine the degradation kinetics of a 10% LAA solution in water-containing medium (m/v) under ultraviolet radiation, using a ultraviolet spectrophotometer, for 60 minutes.
A stoichiometric amount of the reducing agent of the oxidation reaction, that is, Glutathion, was added to the previous post-irradiated solution. The resultant solution was irradiated with ultraviolet radiation for further 60 minutes. By analyzing the remaining LAA, it could be noticed that 9.50% (m/v) thereof was still present. Therefore, the degradation of the LAA is dramatically minimized after the reducing agent is added.
In a third test, a 10% LAA solution was prepared in a water-containing medium (m/v) with a stoichiometric amount of the reducing agent Glutathion. […] However, the use of said compound in stoichiometric amounts still presents the already mentioned disadvantages.

- remaining concentration of molecular LAA (10% LAA solution in water-containing medium, ultraviolet radiation 60 minutes, no reducing agent): about 9.58 % (m/v)
- remaining LAA (10% LAA solution with stoichiometric amount of Glutathion, ultraviolet radiation 60 minutes): 9.98 % (m/v)
- remaining LAA (stoichiometric Glutathion added to the post-irradiated solution, ultraviolet radiation for further 60 minutes): 9.50 % (m/v)
Structure (SMILES): O=C1O[C@H]([C@@H](O)CO)C(O)=C1O [LAA, levogyrous ascorbic acid]
